Reference: patent US5441563A, “Highly insoluble azole embossing inhibitor and the use thereof” (Armstrong World Industries, Inc., priority 1994, dated 1995)
Values after ≈ are worked out from the molar mass of the structure shown. Read-outs that look alike come from different tables or passages of the source.

Key:
[1] = Stability of dispersions and ink compositions containing the inhibitor; assay type: physicochemical; conditions: for Stability of ink mixture: cationic aqueous ink with cationic dispersion; for Stability of dispersion: cationic dispersion paste, Maquat SC-18
Experimental: A cationic dispersion of TTA-P was prepared using a quaternary ammonium salt, stearyl dimethylbenzylammonium chloride, (Maquat SC-18, Mason Chemical Co.), as the stabilizer. The product was first diminutized by grinding the coarse powder (TTA-P) for approximately 18 hours in a standard ball mill using a combination of 12 mm diameter spherical and 6 mm diameter×6 mm high cylindrical balls. Approximately 1/2 of the 1 L ball mill volume was filled for the grinding operation. […] The dispersion was then prepared by adding 2.35 parts Maquat SC-18 (85% active) to 37.65 parts deionized water and stirring until dissolved. A total of 40 parts of TTA-P was then added to the surfactant solution in 5 part increments with stirring, followed by agitation with a sonic dismembrator, (Fisher Model 3000). The sonic probe was inserted directly into the suspension and run on the highest setting for 1-2 minutes. A creamy dispersion resulted initially, with viscosity increasing with increasing solids content. The final suspension was a uniform paste with a concentration of 50% by weight solids.
A blue aqueous inhibitor ink was prepared by adding 0.20 parts of CIB 103 Blue Pigment (sold by Penn Color, Inc.) to 20 parts of CIE 94 Extender (sold by Penn Color, Inc.) and stirring to uniform coloration. Then 6.06 parts of the 50% suspension of TTA-P (prepared in Example 4) was then added to the ink mixture and stirred to uniform coloration.
An anionic dispersion paste of TTA-P was prepared with a polyoxyethylene branched nonylphenyl ether phosphate surfactant, (Rhodofac PE-50, Rhone Poulenc). Diminutization of the compound was performed by milling as described in Example 4. Dispersion of the compound was accomplished using the sonic dismembrator, also described in Example 4. Materials were combined in the proportion: 40 parts of deionized water, 2.06 parts of the surfactant and 40 parts of TTA-P. Materials were added in the listed sequence.
The anionic dispersion of TTA-P (Example 6) was added to an anionic ink formulation of Sicpa Corp. The resultant mixture consisted of 20 parts Sicpa Extender 694556, 0.20 parts Sicpa black ink 674554 and 6.06 parts of the 48.7% dispersion of the compound (Example 6).
A portion of BTA-P, the benzotriazole-piperazine derivative, was stably dispersed with the cationic surfactant stearyldimethylbenzylammonium chloride, (Maquat SC-18, Mason Chemical Co.). The compound was milled and dispersed as in Example 4. The materials were combined in the proportion: 20 parts deionized water, 1.18 parts Maquat SC-18, (85% active), and 33.16 parts BTA-P. The materials were added in the listed sequence. […] The paste was 61% by weight of BTA-P.
The cationic dispersion of BTA-P (Example 8) was added to a cationic ink formulation of Penn Color. The mixture consisted of 20 parts Penn Color Extender CIE 94, 0.20 parts Penn Color CIB 103 blue ink and 4.96 parts of the 61% dispersion of BTA-P (Example 8).
A portion of HTTA-P, the hydrogenated tolyltriazolepiperazine derivative, was colloidally dispersed with the cationic surfactant stearyldimethylbenzylammonium chloride, (Maquat SC-18, Mason Chemical Co.). The milling and dispersing procedures of Example 4 were followed. The materials were combined in the proportion: 21 parts deionized water, 1 part Maquat SC-18, (85% active), and 37 parts HTTA-P. The materials were added in the listed sequence. […] The paste was 62.7% by weight of HTTA-P.
The cationic dispersion of HTTA-P (Example 10) was added to a cationic ink formulation of Penn Color. The mixture consisted of 20 parts Extender CIE 94, 0.20 parts CIB 103 blue ink and 4.83 parts of the 62.7% dispersion of HTTA-P (Example 10).
Hitherto, dispersion of these new inhibitors directly into the ink formulation was not considered. The instability problems of other triazole inhibitors seemed to indicate that a surfactant in addition to that found in the ink and extender was required. […]

[2] = as above; assay type: physicochemical; conditions: direct milling in cationic ink extender CIE 94, about 18 hours
[3] = physchem; assay type: physicochemical; conditions: for solubility at 24 h / Solubility in H2O: water; for Solubility in H2O: 24 h
[4] = Inhibitor activity (IA), depth of chemical embossing and degree of expansion ranked against BTA-P (Table II); design: key to Inhibitor Activity (IA): 1: Excellent; 2: Very Good; 3: Good; 4: Fair; 5: Poor; None; conditions: for Inhibitor Activity (IA): 10% by weight inhibitor in ink, scale 1 to 5, BTA-P benchmark = 1, 7 mil plastisol, 185 °C, 1.9 min
Experimental: Table II sets forth a number of properties of the examples and comparative examples which were made and tested. Most of these compounds were prepared using the direct milling procedure and then evaluated for inhibitor activity, ghosting and embossing definition.
The inhibited inks (at 10% by weight inhibitor concentration) were printed on 7 mils of an expandable plastisol coated onto a glass mat which was saturated with a non-expandable plastisol. This was done on a flat-bed gravure proof press using a 100 line screen step-wedge gravure plate. The steps ranged from a deep shadow tone to a shallow highlight tone. The inks printed and dried without any tack.
The printed samples were coated with 10 mils of a clear plastisol wearlayer and heated for 1.9±0.1 minutes at an air temperature of 185°±2° C. in a Werner. Mathis oven to fuse and expand the foamable plastisol to about 14 mils (a 2:1 blow ratio). The thickness of the printed coated areas (i.e., restricted area) was measured in mils and compared to the thickness of the expanded unprinted surrounding areas. This difference was recorded as depth of chemical embossing and was used along with the degree of expansion in the inhibited area to access the inhibitor activity (IA).
The inhibitor activity of the BTA-P derivative was established as the benchmark and on a scale of 1 to 5 was given a rating of 1 (five on the scale being less than one mil of overall chemical embossing). This is a subjective ranking where the other compounds were evaluated for inhibitor activity by comparing them to BTA-P, both numerically and visually.

| Molecule | Solubility in iPrOH ([3]; 1440 min) | solubility at 24 h [3] | Inhibitor Activity (IA) [4] | also measured |
| --- | --- | --- | --- | --- |
| c1ccc2c(c1)nnn2CN1CCN(Cn2nnc3ccccc32)CC1 [BTA-P, N,N'-bis(benzotriazol-1-ylmethyl) piperazine] | 0.007 % BY WT | 10 µg/mL (≈ 28.7 µM) | 1 | Stability of ink mixture [1]: colloidally stable; Stability of dispersion [1]: stable homogenous paste; Stability of dispersion [2]: homogeneous stable dispersion |
| O=C(O)c1ccc(S(=O)(=O)NCn2nnc3ccccc32)cc1 [BTA-4CBSA, N-(Benzotriazol-1-yl Methyl)-4'-Carboxybenzene Sulfonamide] | 0.137 % BY WT | 110 µg/mL (≈ 331 µM) | 1 | – |
| c1ccc2c(c1)nnn2Cn1nnc2ccccc21 [BTA-D, reference compound] | – | – | N | – |
| CC(n1nnc2ccccc21)n1c2ccccc2c2ccccc21 (stereo not shown) [BTA-C, 1-(1'-(Carbazo-9'-yl)Ethyl) Benzotriazole, reference compound] | – | – | N | – |
| CCCCc1ccc2c(c1)nnn2CNC(=O)NCn1nnc2cc(CCCC)ccc21 [Example 5-BBTA-U, 1,3-Bis(5'-Butyl Benzotriazol-1'-yl Methyl) Urea] | – | – | 3 | – |
| O=C(NCn1nnc2ccccc21)NC(=O)NCn1nnc2ccccc21 [BTA-B, 1,5-Bis(Benzotriazol-1'-yl Methyl) Biuret] | – | – | 4 | – |
| O=S(=O)(NCn1nnc2ccccc21)c1cccc2c(S(=O)(=O)NCn3nnc4ccccc43)cccc12 [BTA-NDSA, 1(1',5'-naphthalenedisulfonamido) methyl benzotriazole] | 0.051 % BY WT | 510 µg/mL (≈ 930 µM) | 1 | – |
| O=C1CNC(=O)N1Cn1nnc2ccccc21 [BTA-H] | – | – | 5 | – |
| O=C(O)CN(Cn1nnc2ccccc21)Cn1nnc2ccccc21 [BTA-G, N,N-bis(benzotriazol-1-ylmethyl) glycine] | 0.914 % BY WT | 6900 µg/mL (≈ 20500 µM) | 1 | – |
| c1ccc2[nH]nnc2c1 [BTA, Benzotriazole, reference compound] | 53.9 % BY WT | 19800 µg/mL (≈ 166000 µM) | 2 | – |
| c1ccc2c(c1)nnn2CNCn1nnc2ccccc21 [BTA-A, bis(benzotriazol-1-ylmethyl) amine] | 0.028 % BY WT | 390 µg/mL (≈ 1400 µM) | 1 | – |
| CN(Cn1nnc2ccccc21)C(=O)N(C)Cn1nnc2ccccc21 [BTA-DMU, 1,3-Bis(benzotriazol-1'-ylmethyl) N,N'-dimethyl urea] | – | – | 3 | – |
| ON(Cn1nnc2ccccc21)Cn1nnc2ccccc21 [BTA-NOH, N,N-bis (benzotriazol-1-yl methyl) hydroxylamine] | 1.08 % BY WT | 800 µg/mL (≈ 2710 µM) | 1 | – |
| Tolyltriazole [TTA, reference compound] | 52.9 % BY WT | – | 2 | Solubility in H2O [3]: 0.55 % BY WT |
| c1ccc(-c2nc(NCn3nnc4ccccc43)nc(NCn3nnc4ccccc43)n2)cc1 [BTA-BG, 2,4-bis(benzotriazol-1'-ylmethyl) benzoguanamine] | – | – | 4 | – |
| N,N'-Bis(Methylcyclohexyltriazol-1-yl Methyl) Piperazine [HTTA-P] | – | – | 1 | Stability of ink mixture [1]: colloidally stable; Stability of dispersion [1]: stable homogenous paste |
| c1ccc2[nH]cnc2c1 [BI, Benzimidazole] | – | – | 2 | Solubility in iPrOH ([3]; isopropyl alcohol, room temperature, 24 hours): 15.30 % BY WT; solubility at 24 h ([3]; H2O, room temperature, 24 hours, read-out: Solubility in H2O): 5000 µg/mL (≈ 42300 µM); Inhibitor effectiveness in words [4]: effective inhibitor |
| c1ccc2c(c1)ncn2CN1CCN(Cn2cnc3ccccc32)CC1 [BI-P, N,N'-Bis(Benzimidazol-1-yl Methyl) Piperazine] | 0.211 % BY WT | 530 µg/mL (≈ 1530 µM) | 1 | – |
| c1ccc2c(c1)nnn2CNc1nc(NCn2nnc3ccccc32)nc(NCn2nnc3ccccc32)n1 [Example 3BTA-M] | – | – | 3 | – |
| CS(=O)(=O)NCn1nnc2ccccc21 [BTA-MSA, 1-(1'-methanesulfonamido) methyl benzotriazole] | – | – | 5 | – |
| CC(N1CCCC1=O)n1nnc2ccccc21 (stereo not shown) [BTA-PY, 1-(1'-(2'-oxopyrrolidin-1'-yl)ethyl) benzotriazole] | – | – | 5 | – |
| O=C(NCn1nnc2ccccc21)c1ccccc1 [BTA-PA, reference compound] | – | – | N | – |
| S=C(NCn1nnc2ccccc21)NCn1nnc2ccccc21 [BTA-TU, 1,3-bis(benzotriazol-1-ylmethyl) thiourea] | 0.011 % BY WT | 10 µg/mL (≈ 29.6 µM) | 2 | – |
| O=C(NN(Cn1nnc2ccccc21)Cn1nnc2ccccc21)c1ccccc1 [BTA-HYR, 1-Bis(Benzotriazol-1'-yl Methyl)-2-Benzoyl Hydrazide] | 0.019 % BY WT | 60 µg/mL (≈ 151 µM) | 1 | – |
| Cc1ccc2c(c1)nnn2CNC(=O)NCn1nnc2cc(C)ccc21 [Example 5-TTA-U, 1,3-bis(5'-tolyltriazol-1'-ylmethyl) urea] | – | – | 3 | – |
| 1Bis(hydroxyethyl)aminomethyltotyltriazole [TTA-HE, reference compound] | > 50 % BY WT | – | 3 | Solubility in H2O [3]: ~50 % BY WT |
| 1Bis(2-ethylhexyl)aminomethyltolyltriazole [TTA-EH, reference compound] | > 50 % BY WT | – | 2 | Solubility in H2O [3]: < 0.01 % BY WT |
| O=C(NCn1nnc2ccccc21)NCn1nnc2ccccc21 [BTA-U, 1,3-bis(benzotriazol-1'-ylmethyl) urea] | 0.08 % BY WT | 20 µg/mL (≈ 62 µM) | 1 | – |
| O=S(=O)(NCn1nnc2ccccc21)c1cccc(S(=O)(=O)NCn2nnc3ccccc32)c1 [BTA-BDSA, 1(1',3'-benzenedisulfonamido)methyl benzotriazole] | 0.120 % BY WT | 890 µg/mL (≈ 1790 µM) | 1 | – |
